The values that follow are results of earlier work, collected in US6977253B2, “Methods for the treatment of bipolar disorder using carbamazepine” (Shire Pharmaceutical Development Inc., priority 2003, dated 2005).

For the data set, the system named is acute mania. The settings on record: controlled carbamazepine monotherapy trials in acute mania; McElroy and Keck 2000.

For the compound `NC(=O)N1c2ccccc2C=Cc2ccccc21` [carbamazepine, 5-carbamoyl-5H-dibenz(b,f)azepine], the Pooled response rate is recorded as 52%.
